Data reported in patent US20220265706A1, “PHARMACEUTICAL COMPOSITION CONTAINING COMPLEXES OF ALLOFERON AND ZINC” (priority 2019, published 2022).

Assays:
[1] = system: Herpes Simplex Virus Type 2 (HSV-2) Strain G (ATCC VR-734); assay: Protective action in a model of herpetic infection in mice; assay type: in vivo, White outbred mice; conditions: HSV-2 vaginal infection, 1.25 mg/kg (Acyclovir 50 mg/kg); for N14, number of animal deaths in a group on the 14th day after infection: 20 mice per group; for N14, number of animal deaths in a group on the 14th day after infection / M, mortality rate: i.p. once a day for 3 days; for M, mortality rate / IP, index of protection: 14 days follow-up; for IP, index of protection: relative to control mortality 60.0%
Procedure: The developed compositions were assessed for their protective action on the basis of a herpetic infection model. The following reference products were used: 1/Allokin-alfa, Lyophilisate for Solution for Subcutaneous Administration, a medicinal product used to treat genital herpes, containing 1 mg of alloferon per ampoule; 2/Acyclovir, a medicinal product used in the conventional herpes therapy.
White outbred mice (females) weighing 16 to 20 g were received from Rappolovo Nursery (Leningrad Oblast) and maintained on a standard diet under controlled vivarium conditions. The animals for the experimental groups were selected on a random basis. The animals were divided into 5 groups of 20 animals each: four experimental groups in which the animals received injections of Composition 1, Composition 2, Allokin-alfa, and Acyclovir, respectively, and one control group in which the animals received injections of 0.9% sodium chloride solution.
The study was made with the use of Herpes Simplex Virus Type 2 (HSV-2) Strain G (ATCC VR-734). The infection was introduced vaginally. Vaginal epithelium was injured with the use of a vaginal smearing scarifier, after which the animals were infected with the virus at a dose of 1.7×10^5TCID50 in the amount of 30 mcL.
Allokin-alfa and Compositions 1 and 2 were administered to the animals intraperitoneally at a dose of 1.25 mg/kg once a day for 3 days after the infection introduction. Acyclovir was administered in accordance with the same scheme at a dose of 50 mg/kg. The control group received injections of 0.9% sodium chloride solution.
The animals were followed up for 14 days. Mortality in the control and experimental groups were recorded on a daily basis. Based on the data so obtained, mortality rates M (the ratio of animal deaths over 14 days to the total number of infected animals in a group) and the index of protection IP (the ratio between the difference of the control and experimental groups' mortality rates and the control group lethality rate) were calculated.

Interleukin 18 = Interleukin 18 (IL-18) induction in mouse blood serum; assay type: in vivo; conditions: BALB/C mice, subcutaneous single dose 1 mg alloferon/kg; serum 36 hours after administration
Procedure: Six samples were tested: • 1. Alloferon (Allokin-alfa, Lyophilisate for Solution for Subcutaneous Administration)—a reference product, • 2. Composition 1, • 3. Composition 2, • 4. […] 0.9% sodium chloride solution—control.
(§1) Samples 1, 2, 3, and 5 contained alloferon at the concentration of 1 mg/mL. The alloferon solution in Samples 1 and 5 was produced by dissolving the contents of an Allokin-alfa ampoule (1 mg of alloferon) in 1 mL of 0.9% sodium chloride solution. […] To determine the background content of IFN-γ and IL-18 in the subject animals' blood serum, a 0.9% sodium chloride solution was used.
(§2) The experiments enrolled BALB/C mice, females, weighing 16 to 22 grams, 18 weeks of age, divided into 6 groups of 15 individuals each. The samples were administered subcutaneously in a single dose of 1 mg of alloferon per 1 kg laboratory animal body weight. Sample 5 components were administered separately, one 15 minutes after the other.
In case of the control group, the confidence interval was calculated based on measurements of the same sample dilutions. For the experimental groups, the confidence interval was calculated based on three samples from three animals for each measuring point.

Interferon Gamma = assay: Interferon gamma (IFN-γ) induction in mouse blood serum, solid phase immunoassay; assay type: in vivo; conditions: BALB/C mice, subcutaneous single dose 1 mg alloferon/kg; serum 3 hours after administration
Procedure: Furthermore, cytokine induction caused by using both components (alloferon and the zinc salt), where administered to a body separately in time, were determined. Six samples were tested: • 1. Alloferon (Allokin-alfa, Lyophilisate for Solution for Subcutaneous Administration)—a reference product, • 2. Composition 1, • 3. Composition 2, • 4. […] 0.9% sodium chloride solution—control.
as §1, §2

Compound	N14, number of animal deaths in a group on the 14th day after infection [1]	M, mortality rate [1]	IP, index of protection [1]	Interleukin 18, after 36 hours (mg/mL of blood serum) (Interleukin 18)	Interferon Gamma, after 3 hours (mg/mL of blood serum) (Interferon Gamma)
Nc1nc2c(ncn2COCCO)c(=O)[nH]1 [Acyclovir]	3	15.0%	75.0%	–	–
CC(=O)[O-].CC(=O)[O-].[Zn+2] [Zinc acetate]	–	–	–	194 ± 12 mg/mL of blood serum	82 ± 8 mg/mL of blood serum
alloferon	4	20.0%	66.7%	360 ± 20 mg/mL of blood serum	95 ± 16 mg/mL of blood serum
